Read-outs that look alike come from different tables or passages of the source.

Data set [1] relates to marble burying behaviour in mice. Briefly: Mouse Marble Burying Assay (BUR). In kind it is in vivo. The following applies: Mus musculus, sc. On the procedure: This assay was carried out essentially according to the procedure described by Treit et al. (1981) Pharmacol Biochem Behav; 15; 619-626.
The results are presented as BUR ED50 (sc). This is the effective dose causing 50% inhibition of burying compared to control mice.

For data set [2], the system named is REM sleep in male Wistar rats. Briefly: Rat Sleep Analysis: suppression of REM sleep. In kind it is in vivo. The following applies: first 3 hours after drug administration. On the procedure:
Suppression of REM sleep in male Wistar rats was measured after treatment with compounds according to the invention or reference antidepressants using the methods described by Ruigt et al.(Electroencephalography and clinic Neurophysiology, 1989, 73, pages 52-63 & 64-71)
The values reported in Table 1 are expressed as percentage change over placebo for the amount of REM sleep in the first 3 hours after drug administration.

In data set [3] the test system is hyperpolarisation-activated inward cation current Ih in dorsal root ganglion (DRG) cells. Briefly: Inhibition of hyperpolarisation-activated cation current (Ih), whole cell voltage clamp on cultured DRG cells. The format is cell-based. The settings on record: (-) log concentration at which Ih activation rate constant kact is reduced by 50%; mean; rat DRG cells. On the procedure: A) determining the potency of compounds to inhibit the hyperpolarisation-activated inward cation current Ih in dorsal root ganglion (DRG) cells of the rat; the effect is measured as the decrease in Ih activation rate and is expressed as the half maximal effect concentration (IC50) or the negative logarithm of this IC50 (known as pIC50).
To obtain E15 DRGs, pregnant Wistar rats were sacrificed. Embryos were removed and spinal cords with DRG attached to both sides were dissected out and collected in Hanks balanced salt solution (HBSS; Gibco). DRG were separated from the spinal cord and pooled in HBSS without Ca^2+ and Mg^2+. Dissociation of intact DRG was started by incubation with a 0.25% trypsin solution for 30 min at 37° C. Trypsination was stopped by diluting the enzyme and centrifugation (1 min; 2500 rpm). After aspiration of the supernatant the tissue pellet was triturated with DMEMF10 (DMEM supplemented with 10% fetal bovine serum (Hyclone), 6 g/l glucose and 2 mM I-glutamine) and centrifuged for 10 min at 1700 rpm. Dissociated DRG cells were resuspended in culture medium (DMEMF10 with 50 ng/ml NGF 2.5S (Alomone labs)), counted and plated out in a density of 1-2.105 cells on collagen (50 μg/ml) and/or poly-l-lysine (10-20 μg/ml) coated glass coverslips in 24-well tissue culture plates. Plates were kept in a humidified incubator at 37° C. and 5% CO2 for 72 hrs. Glial cell proliferation was inhibited when necessary by adding cytosine arabinoside (Ara-c) at a concentration of 5.10^−7 M. After 3 days fresh culture medium was administered. Medium was subsequently changed every […].
DRG cells were sampled with the whole cell voltage clamp method. Glass electrodes were pulled from thick-walled borosilicate capillaries with filament (1 mm outer diameter). Pipette resistance was 2-5 MΩ. Series resistance (5-15 MΩ) was compensated for to ensure so that potential errors made in the determination of the actual membrane potential were less then 2 mV. Cell capacitance (10-75 pF) compensation was used to compensate for capacitive currents. The extracellular solution contained (in mM): NaCl 140; KCl 5; CaCl2 2; MgCl2 1; D(+) glucose 5.6;HEPES 5; Sucrose 30; pH=7.4. The pipette solution contained (in mM): K-gluconate 119; NaCl 5; KCl 13; CsCl 2; CaCl2 1; EGTA 10;HEPES 10; pH=7.2. Cells were preincubated for more then 1½ hours with different concentrations (1E-9 to 1E-4 M) of test compound dissolved in extracellular solution at room temperature (20° C.) in normal air. Larger cells that appeared round with a pronounced halo under phase-contrast microscopy were selected because almost all of them expressed Ih. Data were acquired with a Digidata 1200® analogue to digital interface using PCLAMP® software (both from Axon Instruments). For Ih activation the cell was held at −63 mV and stepped to −123mV (potentials after correction for liquid junction potential). Current traces were selected for soundness, averaged and fitted to a first order exponential using PCLAMP® software (fit between 60 and 950 ms to avoid biasing by transient currents). Activation time constants (τ) for Ih under different drug concentrations were derived from this fit. The activation rate constant for Ih is defined as kact=1/τ.
The pIC50 is the (-) log concentration of a compound at which the Ih activation rate constant kact is reduced by 50%. pIC50 for a compound could be estimated adequately by fitting kact to the logarithm of the concentration with a logistic function using PRISM® software (Graphpad Inc.). The function chosen is:
kact=A/(1+10^ (log([compound])+pIC50)); A is kact [compound]=0M.
Averaging all control measurements yields that A=3.52 s^−1 and the maximum kact was forced to this value for all compounds in this study. The Hill slope that normally is estimated in concentration-effect relations appeared to be about 1 and was subsequently fixed to this value. […]

[4] abbreviates: Table 2, read-out: BUR sc ED50(mg/kg).
The mark [5] stands for this setting: effective dose causing 50% inhibition of burying compared to control mice, read-out: BUR ED50 (SC).

In general, melting point refers to the temperature of the solid-liquid transition. `C=CCC(N)c1ccccc1-c1nccs1.O=C(O)/C=C/C(=O)O` (stereo not drawn) [16 (4), 2-(thiazol-2-yl)-α-2-propenyl-benzenemethanamine (E)-butenedioate]: the melting point was 156 to 161 °C. Further, the ED50 in data set [1] (setting [4]) worked out at 9 mg/kg. With `C=CCC(N)c1ccccc1-c1ccccc1.Cl` (stereo not drawn) [15 (4), 2-phenyl-α-2-propenyl-benzenemethanamine hydrochloride], the melting point lay in the range of 214 to 218 °C. In addition, the ED50 in data set [1] (setting [4]) worked out at 8.6 mg/kg. Take `COc1ccc(C(CN(C)C)C2(O)CCCCC2)cc1` (stereo not shown) [Ve, Venlafaxine]: in data set [2] (dose 3.2 mg/kg IP), the “percentage change over placebo for the amount of REM sleep” value (from here on “percentage change over placebo”) is −77%. The compound `C=CC[C@H](N)c1cc(F)ccc1-c1noc2ccccc12.O=C(O)/C=C/C(=O)O` [Example 13(3), (S)-(−)-2-(1,2-benzisoxazol-3-yl)-5-fluoro-α-2-propenyl-benzenemethanamine (E)-butenedioate] returned a melting point of 174 to 176 °C. In addition, in data set [3], the pIC50-Ih is on record as 5.98. The compound `CC(O)c1ccccc1-c1noc2ccccc12` (stereo not drawn) [Example 27, 2-(1,2-Benzisoxazol-3-yl)-α-methyl-benzenemethanol] gave a pIC50-Ih in data set [3] of 5.50. The compound `C=CC[C@H](N)c1ccccc1-c1noc2cc(Cl)ccc12.Cl` [Example 19(2), (S)-(−)-2-(6-chloro-1,2-benzisoxazol-3-yl)-α-2-propenyl-benzenemethanamine hydrochloride] had a melting point of 169 to 178 °C. In data set [3], this compound had a pIC50-Ih of 6.79.

As to `C=CCC(N)c1ccccc1-c1cccc(C(F)(F)F)c1.O=C(O)/C=C/C(=O)O` (stereo not drawn) [15 (34), 2-(3-trifluoromethylphenyl)-α-2-propenyl-benzenemethanamine (E)-butenedioate], the melting point was 194 to 196 °C. For the same compound, the ED50 in data set [1] (setting [4]) amounted to 6.9 mg/kg.

`C=CCC(N)c1ccccc1-c1ccc(Cl)cc1F.O=C(O)/C=C/C(=O)O` (stereo not drawn) [15 (37), 2-(4-chloro-2-fluorophenyl)-α-2-propenyl-benzenemethanamine (E)-butenedioate] returned a melting point of 213 to 215 °C. The ED50 in data set [1] (setting [4]) was 9 mg/kg. For `CC(N)c1ccccc1-c1noc2ccccc12.Cl` (stereo not drawn) [Example 39, 2-(1,2-Benzisoxazol-3-yl)-α-methyl-benzenemethanamine Hydrochloride], the melting point fell in the range of 229 to 236 °C. Further, the pIC50-Ih in data set [3] is reported as 5.24. `C=CCC(N)c1ccccc1-c1noc2ccccc12.Cl` (stereo not drawn) [Example 11, 2-(1,2-Benzisoxazol-3-yl)-α-2-propenyl-benzenemethanamine Hydrochloride] displayed a melting point of 191 °C. For the same compound, the ED50 in data set [1] (setting [5]) worked out at 1.04 mg/kg. Further, the “percentage change over placebo” value in data set [2] (dose 0.32 mg/kg IP) is listed as −44%. The “percentage change over placebo” value in data set [2] (dose 1 mg/kg IP) is on record as −88%. Compound `CCCCC(N)c1ccccc1-c1noc2ccccc12.Cl` (stereo not drawn) [Example 15, 2-(1,2-Benzisoxazol-3-yl)-α-butyl-benzenemethanamine Hydrochloride] returned a pIC50-Ih in data set [3] of 5.98. Regarding `CN(C)CCC=C1c2ccccc2CCc2ccccc21` [Am, Amitriptyline], the “percentage change over placebo” value in data set [2] (dose 4.6 mg/kg IP) is on record as −22%; in data set [2] (dose 10 mg/kg IP) it was −100%. In turn, `C=CCC(N)c1ccccc1-c1noc2ccncc12.O=C(O)/C=C\C(=O)O` (stereo not drawn) [16 (7), 2-(isoxazolo[4,5-c]pyridin-3-yl)-α-2-propenyl-benzenemethanamine (Z)-butenedioate] gave a melting point of 151 to 153 °C. Besides, the ED50 in data set [1] (setting [4]) was 7.6 mg/kg.

As for `COCCCC/C(=N\OCCN)c1ccc(C(F)(F)F)cc1` [Fl, Fluvoxamine], the “percentage change over placebo” value is 40% in data set [2] (dose 4.6 mg/kg IP) and −100% in data set [2] (dose 22 mg/kg IP). The compound `C=CCC(N)c1ccccc1-c1noc2ccc(F)cc12.Cl` (stereo not drawn) [11(3), 2-(5-fluoro-1,2-benzisoxazol-3-yl)-α-2-propenyl-benzenemethanamine hydrochloride] returned a melting point of 209 to 214 °C. Moreover, the ED50 in data set [1] (setting [5]) was determined as 2.68 mg/kg. The corresponding values for `C=CC[C@@H](N)c1ccccc1-c1noc2cc(Cl)ccc12.Cl` [12(2), (R)-(+)-2-(6-chloro-1,2-benzisoxazol-3-yl)-α-2-propenyl-benzenemethanamine hydrochloride] are 144 to 159 °C and 3.4 mg/kg. For `C=CCC(N)c1ccccc1-c1noc2cnccc12.O=C(O)/C=C/C(=O)O` (stereo not drawn) [16 (6), 2-(isoxazolo[5,4-c]pyridin-3-yl)-α-2-propenyl-benzenemethanamine (E)-butenedioate], the melting point lay within 183 to 189 °C. Besides, the ED50 in data set [1] (setting [4]) was 3.8 mg/kg. As for `O=C(NCCN1CCOCC1)c1ccc(Cl)cc1` [Mo, Moclobemide], the results for the “percentage change over placebo” value in data set [2] (dose 10 mg/kg IP) and in data set [2] (dose 32 mg/kg IP) were −61% and −100%, respectively. For `C=CCC(N)c1ccccc1-c1cncc2ccccc12.O=C(O)/C=C/C(=O)O` (stereo not drawn) [16 (2), 2-(isoquinolin-4-yl)-α-2-propenyl-benzenemethanamine (E)-butenedioate], the melting point fell in the range of 246 to 248 °C. In addition, the ED50 in data set [1] (setting [4]) was 9.9 mg/kg.

As to `C=CCC(N)c1ccccc1-c1noc2c1CCCC2.O=C(O)/C=C\C(=O)O` (stereo not drawn) [15 (25), 2-(4,5,6,7-tetrahydro-1,2-benzisoxazol-3-yl)-α-2-propenyl-benzenemethanamine (Z)-butenedioate], the melting point is 144 to 145 °C. Further, the ED50 in data set [1] (setting [4]) worked out at 3.2 mg/kg. As to `Cl.NC(Cc1ccsc1)c1ccccc1-c1noc2ccccc12` (stereo not drawn) [36(2), 2-(1,2-benzisoxazol-3-yl)-α-[(thien-3-yl)-methyl)-benzenemethanamine hydrochloride], the melting point lay in the range of 264 to 267 °C. In addition, the ED50 in data set [1] (setting [5]) amounted to 1.2 mg/kg.

For `Cl.NC(Cc1ccccc1)c1ccccc1-c1noc2ccccc12` (stereo not drawn) [36(1), 2-(1,2-benzisoxazol-3-yl)-α-benzyl-benzenemethanamine hydrochloride], the melting point is 210 to 246 °C (dec.). For the same compound, the ED50 in data set [1] (setting [5]) was 2.5 mg/kg.

Take `C=CCC(N)c1ccccc1-c1ccc(Cl)s1.O=C(O)/C=C/C(=O)O` (stereo not drawn) [15 (14), 2-(5-chlorothien-2-yl)-α-2-propenyl-benzenemethanamine (E)-butenedioate]: the melting point was in the range of 192 to 199 °C. Also, in data set [1] (setting [4]), the ED50 was 19 mg/kg. Turning to `Cl.NC(CC1CC1)c1ccccc1-c1noc2ccccc12` (stereo not drawn) [36(6), 2-(1,2-benzisoxazol-3-yl)-α-(cyclopropylmethyl)-benzenemethanamine hydrochloride], the ED50 in data set [1] (setting [5]) turned out to be 1.5 mg/kg.

The record behind these values is US20020037885A1, “Therapeutic compounds” (priority 1999, published 2002).
